Tests used:
[1] = test system: Human colon carcinoma cells HCT-116; test: Cytotoxic activity on culture of human colon carcinoma cells HCT-116 (Alamar Blue); format: cell-based; details: HCT-116 cells, 72 hours after addition of compounds, Alamar Blue viability
Procedure: (§1) The activity of the compounds as histone deacetylase (HDAC) inhibitors was measured using an in vitro acetylation assay. The compounds were then evaluated as inhibitors of proliferation of human tumor cell cultures.
24 hours after seeding, the compounds at different concentrations are added. […] 72 hours after addition of the compounds, cell viability is measured by means of the dye Alamar Blue.

[2] = test system: histone deacetylase (HDAC), nuclear extract of Hela cells; test: Deacetylase activity on nuclear extract of HeLa cells (Fluor de Lys kit); format: biochemical, human; details: percent inhibition relative to control without inhibitor, compound at 0.1 μM
Procedure: as §1
Deacetylase Activity on Nuclear Extract of Hela Cells (Human Cervical Cancer Cell)
The assay (Fluor de Lys™ kit, BioMol) is divided into two steps: in the first step the substrate which comprises an acetylated lysine residue is reacted with the nuclear extract (HeLa) containing the enzymatic activity in the presence and absence of inhibitors. In the second step a fluorogenic reagent is added which highlights the deacetylated residues. A reduction in fluorescence is obtained where there has been inhibition of the deacetylase activity. The result is finally expressed as percent inhibition relative to the control without inhibitor at a concentration of 0.1 μM.

Row | SMILES | IC50 ([1]; Homo sapiens, HCT-116, 72 h) | % inhib. 0.1 μM [2] | IC50 [1]
1 | O=C(CCCC1CCN(C(=O)NCc2ccccc2)CC1)NO [Ex 7, 4-(3-Hydroxycarbamoyl-propyl)-piperidine-1-carboxylic acid benzylamide] | 300 nM | 59% | 
2 | O=C(CCCC1CCN(C(=O)Nc2ccccc2)CC1)NO [Ex 8, 4-(3-Hydroxycarbamoyl-propyl)-piperidine-1-carboxylic acid phenylamide] | 700 nM | 53% | 
3 | Cc1ccc2ccccc2c1C(=O)N1CCC(CCCC(=O)NO)CC1 [Ex 15, N-Hydroxy-4-[1-(2-methyl-naphthalene-1-carbonyl)-piperidin-4-yl]-butyramide] | 840 nM | 43% | 
4 | Cc1ccc(NC(=O)N2CCC(CCCC(=O)NO)CC2)cc1 [Ex 22, 4-(3-Hydroxycarbamoyl-propyl)-piperidine-1-carboxylic acid p tolylamide] |  | 67% | 940 nM
5 | O=C(CCCC1CCN(C(=O)NCc2ccc(Cl)cc2)CC1)NO [Ex 34, 4-(3-Hydroxycarbamoyl-propyl)-piperidine-1-carboxylic acid 4-chloro-benzylamide] | 330 nM | 64% | 
6 | O=C(CCCC1CCN(C(=O)Nc2cccc3ccccc23)CC1)NO [Ex 35, 4-(3-Hydroxycarbamoyl-propyl)-piperidine-1-carboxylic acid 1-naphthylamide] | 710 nM | 55% | 
7 | O=C(CCCC1CCN(C(=O)Nc2ccc3ccccc3c2)CC1)NO [Ex 36, 4-(3-Hydroxycarbamoyl-propyl)-piperidine-1-carboxylic acid 2-naphthylamide] | 830 nM | 73% | 
8 | O=C(CCCC1CCN(C(=O)NCc2cccc(Cl)c2)CC1)NO [Ex 39, 4-(3-Hydroxycarbamoyl-propyl)-piperidine-1-carboxylic acid 3-chloro-benzylamide] | 810 nM | 60% | 
9 | O=C(CCCC1CCN(C(=O)NCc2ccccc2F)CC1)NO [Ex 45, 4-(3-Hydroxycarbamoyl-propyl)-piperidine-1-carboxylic acid 2-fluoro-benzylamide] | 890 nM | 79% | 
10 | Cc1ccc(CNC(=O)N2CCC(CCCC(=O)NO)CC2)cc1 [Ex 52, 4-(3-Hydroxycarbamoyl-propyl)-piperidine-1-carboxylic acid 4-methyl-benzylamide] | 500 nM | 68% | 
11 | Nc1ccccc1NC(=O)N1CCC(CCCC(=O)NO)CC1 [Ex 73, 4-(3-Hydroxycarbamoyl-propyl)-piperidine-1-carboxylic acid (2-amino-phenyl)-amide] | 840 nM | 73% | 
12 | O=C(CCCC1CCN(C(=O)CNC(=O)c2cc3ccccc3s2)CC1)NO [Ex 79, Benzo[b]thiophene-2-carboxylic acid {2-[4-(3-hydroxycarbamoyl-propyl)-piperidin-1-yl]-2-oxo-ethyl}-amide] | 770 nM | 70% | 
13 | N[C@@H](CCc1ccccc1)C(=O)N1CCC(CCCC(=O)NO)CC1 [Ex 82, 4-[1-(2-(S)-Amino-4-phenyl-butyryl)-piperidin-4-yl]-N-hydroxy-butyramide] | 530 nM | 62% | 
14 | O=C(CCCC1CCN(C(=O)Nc2cccc(Cl)c2F)CC1)NO [Ex 83, 4-(3-Hydroxycarbamoyl-propyl)-piperidine-1-carboxylic acid (3-chloro-2-fluoro-phenyl)-amide] | 670 nM | 58% | 
15 | O=C(CCCC1CCN(C(=O)Nc2ccc(Cl)cc2F)CC1)NO [Ex 90, 4-(3-Hydroxycarbamoyl-propyl)-piperidine-1-carboxylic acid (4-chloro-2-fluoro-phenyl)-amide] | 450 nM | 56% | 
16 | N[C@H](Cc1cccc2ccccc12)C(=O)N1CCC(CCCC(=O)NO)CC1 [Ex 93, 4-[1-(2-(R)-Amino-3-naphthalen-1-yl-propionyl)-piperidin-4-yl]-N-hydroxy-butyramide] | 500 nM | 64% | 
17 | O=C(CCCC1CCN(C(=O)[C@H](CO)NC(=O)c2cc3ccccc3s2)CC1)NO [Ex 101, Benzo[b]thiophene-2-carboxylic acid {2-[4-(3-hydroxycarbamoyl-propyl)-piperidin-1-yl]-1-(S)-hydroxymethyl-2-oxo-ethyl}-amide] | 510 nM | 64% | 

Row | SMILES | IC50 ([1]; Homo sapiens, HCT-116, 72 h) | % inhib. 0.1 μM [2] | IC50 [1]
18 | O=C(CCCC1CCN(C(=O)[C@@H](CO)NC(=O)c2cc3ccccc3s2)CC1)NO [Ex 102, Benzo[b]thiophene-2-carboxylic acid {2-[4-(3-hydroxycarbamoyl-propyl)-piperidin-1-yl]-1-(R)-hydroxymethyl-2-oxo-ethyl}-amide] | 790 nM | 54% | 
19 | CN(C)[C@@H](CCc1ccccc1)C(=O)N1CCC(CCCC(=O)NO)CC1 [Ex 103, 4-[1-(2-(S)-Dimethylamino-4-phenyl-butyryl)-piperidin-4-yl]-N-hydroxy-butyramide] | 200 nM | 49% | 
20 | N[C@@H](CCc1ccccc1)C(=O)N1CCC(CCCC(=O)NO)CC1 [Ex 105, 4-[1-(2-(S)-Amino-4-phenyl-butyryl)-piperidin-4-yl]-N-hydroxy-butyramide] |  | 59% | 950 nM
21 | O=C(CCCC1CCN(C(=O)NCc2ccco2)CC1)NO [Ex 106, 4-(3-Hydroxycarbamoyl-propyl)-piperidine-1-carboxylic acid (furan-2-ylmethyl)-amide] | 710 nM | 52% | 
22 | N[C@@H](CC(=O)N1CCC(CCCC(=O)NO)CC1)c1ccc2ccccc2c1 [Ex 109, 4-[1-(3-(S)-Amino-3-naphthalen-2-yl-propionyl)-piperidin-4-yl]-N-hydroxy-butyramide] | 68 nM | 71% | 
23 | O=C(CCCC1CCN(C(=O)[C@@H](CCO)NC(=O)c2cc3ccccc3s2)CC1)NO [Ex 110, Benzo[b]thiophene-2-carboxylic acid{3-hydroxy-1-(R)-[4-(3-hydroxycarbamoyl-propyl)-piperidine-1-carbonyl]-propyl}-amide] |  | 54% | 260 nM
24 | N[C@H](CC(=O)N1CCC(CCCC(=O)NO)CC1)c1ccc2ccccc2c1 [Ex 111, 4-[1-(3-(R)-Amino-3-naphthalen-2-yl-propionyl)-piperidin-4-yl]-N-hydroxy-butyramide] | 550 nM | 66% | 
25 | N[C@@H](CC(=O)N1CCC(CCCC(=O)NO)CC1)c1ccccc1 [Ex 112, 4-[1-(3-(S)-Amino-3-phenyl-propionyl)-piperidin-4-yl]-N-hydroxy-butyramide] | 310 nM | 55% | 
26 | O=C(CCCC1CCN(C(=O)[C@H](CCO)NC(=O)c2cc3ccccc3s2)CC1)NO [Ex 113, Benzo[b]thiophene-2-carboxylic acid{3-hydroxy-1-(S)-[4-(3-hydroxycarbamoyl-propyl)-piperidine-1-carbonyl]-propyl}-amide] |  | 61% | 270 nM
27 | O=C(CCCC1CCN(C(=O)[C@H](CO)NC(=O)c2ccc3sccc3c2)CC1)NO [Ex 114, Benzo[b]thiophene-5-carboxylic acid{2-[4-(3-hydroxycarbamoyl-propyl)-piperidin-1-yl]-1-(S)-hydroxymethyl-2-oxo-ethyl}-amide] |  | 61% | 340 nM
28 | NC[C@@H](NC(=O)c1cc2ccccc2s1)C(=O)N1CCC(CCCC(=O)NO)CC1 [Ex 115, 2-oxo-ethyl}-amideBenzo[b]thiophene-2-carboxylic acid{1-(R)-aminomethyl-2-[4-(3-hydroxycarbamoyl-propyl)-piperidin-1-yl]-] |  | 62% | 900 nM
29 | O=C(CCCC1CCN(C(=O)[C@H](CO)NC(=O)c2nccc3ccccc23)CC1)NO [Ex 122, Isoquinoline-1-carboxylic acid {2-[4-(3-hydroxycarbamoyl-propyl)-piperidin-1-yl]-1-(S)-hydroxymethyl-2-oxo-ethyl}-amide] | 420 nM | 42% | 
30 | Cc1ccc(NC(=O)N2CCC(CCCC(=O)NO)CC2)c(N)c1 [Ex 126, 4-(3-Hydroxycarbamoyl-propyl)-piperidine-1-carboxylic acid (2-amino-4-methyl-phenyl)-amide] | 400 nM | 63% | 
31 | CCCOc1ccc(NC(=O)N2CCC(CCCC(=O)NO)CC2)cc1 [Ex 137, 4-(3-Hydroxycarbamoyl-propyl)-piperidine-1-carboxylic acid (4-propoxy-phenyl)-amide] | 150 nM | 68% | 
32 | CC(C)Oc1ccc(NC(=O)N2CCC(CCCC(=O)NO)CC2)cc1 [Ex 139, 4-(3-Hydroxycarbamoyl-propyl)-piperidine-1-carboxylic acid (4-isopropoxy-phenyl)-amide] | 400 nM | 56% | 
33 | N[C@@H](CC(=O)N1CCC(CCCC(=O)NO)CC1)Cc1ccc2ccccc2c1 [Ex 144, 4-[1-(3-(R)-Amino-4-naphthalen-2-yl-butyryl)-piperidin-4-yl]-N-hydroxy-butyramide] | 240 nM | 69% | 
34 | N[C@H](CC(=O)N1CCC(CCCC(=O)NO)CC1)Cc1csc2ccccc12 [Ex 146, 4-[1-(3-(S)-Amino-4-benzo[b]thiophen-3-yl-butyryl)-piperidin-4-yl]-N-hydroxy-butyramide] | 60 nM | 68% | 

Reference: US20080207694A1, “Hydroxamates as Histone Deacetylase Inhibitors and Pharmaceutical Formulations Containing Them” (priority 2005, published 2008)
